Values quoted from earlier work in patent US9884844B2 (priority 2012, dated 2018).

Conditions: rather increase it at high dose

For O=C1NCN(c2ccccc2)C12CCN([C@@H]1CC[C@H]3CCCc4cccc1c43)CC2 [Ro64-6198], the “effect on alcohol drinking” value is given as “failed to decrease alcohol drinking”.
